Like-named read-outs stand apart in the source and are kept apart here. One block for each compound: values may come before it.
Columns and labels:
IL-1β = assay: THP-1 AlphaLISA IL-1β cytokine assay (differentiated THP-1 cells); type: cell-based; conditions: Homo sapiens
How it was run: (§1)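 PMA-differentiated THP-1 cells were preincubated 30 min with compound, stimulated with LPS for 24 h, then nigericin for 1 h, all at 37 °C. Supernatant IL-1β and IL-6 were quantified by AlphaLISA. % inhibition is normalised to +LPS and −LPS controls per cytokine.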

IL-6 = assay: THP-1 AlphaLISA IL-6 cytokine assay (differentiated THP-1 cells); type: cell-based; conditions: Homo sapiens
How it was run: as §1

[1] = system: NRF2 (nuclear factor erythroid 2-related factor 2); assay: NRF2 +/-GSH activation assay (DiscoverX PathHunter NRF2 translocation kit, U2OS cells); type: cell-based; conditions: Homo sapiens
[2] = Hepatocyte stability assay, human; type: in vitro ADME; conditions: human, hepatocytes, T½
How it was run: (§2)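 Cryopreserved hepatocytes at 0.5×10^6 cells/mL in Leibovitz buffer, 37 °C, with 10 μM compound (0.1% DMSO), duplicate. Samples at 0-60 min, acetonitrile quench, LC-MS/MS; intrinsic clearance and half-life from ln % remaining versus time, with buffer-only incubations as control.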

[3] = system: cryo-preserved hepatocytes; assay: Hepatocyte stability assay, human; type: in vitro ADME; conditions: human, hepatocytes
How it was run: as §2

[4] = Hepatocyte stability assay, mouse; type: in vitro ADME; conditions: mouse, hepatocytes, T½
How it was run: as §2

[5] = system: cryo-preserved hepatocytes; assay: Hepatocyte stability assay, mouse; type: in vitro ADME; conditions: mouse, hepatocytes
How it was run: as §2

plasma protein [6] = assay: Plasma protein binding (rapid equilibrium dialysis), human; type: in vitro ADME; conditions: for Binding (%): Human plasma, 5 μM compound, 4 hours
Method: (§3) Equilibrium dialysis is an accurate and reliable method for determining protein binding affinities to chemical or biological substances of low molecular weight. The Rapid Equilibrium Dialysis (RED) plate is specifically designed and extensively validated for plasma protein binding assays. It is also designed for minimal non-specific binding (Thermo Fisher).
(§4) • Phosphate buffered saline (PBS) pH 7.4 was prepared using PBS tablets as per the manufacturer's instructions. • Compound and marker stocks were prepared at 10 mM in DMSO and further diluted to 100× the assay concentration in DMSO. • Plasma was thawed on the day of the assay and centrifuged. The supernatant was transferred to a fresh vessel and the pH adjusted to pH 7.4 using lactic acid or sodium hydroxide.
(§5) Pre-prepared 100× assay compound stocks were spiked 1:100 into pH adjusted plasma. 200 μL of spiked plasma was added to the red compartment of the rapid equilibrium dialysis (RED) device for each replicate. 350 μL of PBS was added to the buffer compartment. The plate was sealed with a breathable lid and shaken on an orbital shaker in a 37° C. incubator, 5% CO2 for 4 hours.
(§6) Standard final incubation conditions were 5 μM compound in plasma containing 1% (v/v) DMSO.
(§7) A sample of the plasma/compound mixture was taken, mixed with an equal volume of PBS and quenched 1:3 with ice-cold acetonitrile containing internal standard. Methanol was also added to matrix match with calibration curve samples. This was the t=0 sample.
(§8) Post-incubation, plasma and buffer were sampled from their respective RED device compartments into separate tubes containing an equal volume of the alternate matrix for each replicate. Samples were quenched 1:3 with ice-cold acetonitrile containing internal standard. Methanol was also added to matrix match with calibration curve samples.
Calibration curves were prepared in methanol and spiked such that the matrix was equivalent to the assay samples.
Quenched samples were mixed thoroughly and protein precipitated at −20° C. for a minimum of 12 hours. Samples were then centrifuged at 4° C. Supernatants were transferred to a fresh 96 well plate for analysis.
Positive control markers were included.
(§9) Fraction unbound, percent bound and percent recovery were the standard assay parameters reported. They were calculated using the following equations: […]
An example compound of formula (I) was tested in this assay. Reference Example 2 (RE2) (which corresponds to Example 49 in WO2020/222011 (Sitryx Therapeutics, 2020)) was used as a comparator compound.

plasma protein [7] = assay: Plasma protein binding (rapid equilibrium dialysis), mouse; type: in vitro ADME; conditions: 5 μM compound, 4 hours
Method: as §3, §4, §5, §6, §7, §8
Calibration curves were prepared in methanol and spiked such that the matrix was equivalent to the assay samples. […]
as §9

Compound: C=C(CC(=O)N[C@@H](C)c1ccc(C(F)(F)F)cc1)C(=O)O [Example 3, (S)-2-methylene-4-oxo-4-((1-(4-(trifluoromethyl)phenyl)ethyl)amino)butanoic acid]
IC50 (IL-1β; THP-1, read-out: IL-1β (IC50)): 2.2 µM
IC50 (IL-1β; THP-1, read-out: IL-1β (IC50), data from repeated experiments): 4 µM
IC50 (IL-6; THP-1, read-out: IL-6 (IC50)): > 82.5 µM
EC50 ([1]; U2OS, 6 h, read-out: NRF2 activation EC50, +GSH): > 100 µM
EC50 ([1]; U2OS, 6 h, read-out: NRF2 activation EC50, −GSH): > 100 µM
Emax ([1]; U2OS, read-out: NRF2 activation Emax, +GSH): 0%
Emax ([1]; U2OS, read-out: NRF2 activation Emax, −GSH): 0%
half-life at 10 μM [2]: > 7.67 h
half-life at 10 μM ([2]; data from repeated experiments): 5.97 h
Clint [3]: 4 μL min^−1 10^−6 cells
half-life at 10 μM [4]: 6.7 h
half-life at 10 μM ([4]; data from repeated experiments): > 7.67 h
Clint [5]: <3 μL min^−1 10^−6 cells
Binding (%) (plasma protein [6]): 89.0%
plasma protein binding compared to prior art ester compound (in words) (plasma protein [6]; Table 4, human and mouse plasma): lower plasma protein binding
Binding (%) (plasma protein [7]): 86.8%

IC50 (IL-1β; THP-1, differentiated THP-1 cells, LPS 24 hr then Nigericin 1 hour, read-out: IL-1β (IC50)): 3.4 µM
IC50 (IL-1β; THP-1, differentiated THP-1 cells, footnote a: data from repeated experiments, read-out: IL-1β (IC50), data from repeated experiments): 3.9 µM
IC50 (IL-6; THP-1, differentiated THP-1 cells, LPS 24 hr then Nigericin 1 hour, read-out: IL-6 (IC50)): > 63.1 µM
EC50 ([1]; +GSH, U2OS PathHunter cells, 6 hours, read-out: NRF2 activation EC50, +GSH): > 100 µM
EC50 ([1]; −GSH, U2OS PathHunter cells, 6 hours, read-out: NRF2 activation EC50, −GSH): > 100 µM
half-life at 10 μM [2]: 6.5 h
Clint [3]: <3 μL min^−1 10^−6 cells
T½ ([3]; 10 μM): >7.67 h
half-life at 10 μM [4]: > 7.67 h
Clint [5]: 3 μL min^−1 10^−6 cells
Binding (%) (plasma protein [6]): 89.2%
Binding (%) (plasma protein [7]): 83.7%
Compound: C=C(CC(=O)NC(C)(C)c1ccc(C(F)(F)F)cc1)C(=O)O [Example 4, 2-methylene-4-oxo-4-((2-(4-(trifluoromethyl)phenyl)propan-2-yl)amino)butanoic acid]
Emax ([1]; U2OS, +GSH, normalised to dimethyl fumarate high control, read-out: NRF2 activation Emax, +GSH): 0%
Emax ([1]; U2OS, −GSH, normalised to dimethyl fumarate high control, read-out: NRF2 activation Emax, −GSH): 1%

Binding (%) (plasma protein [6]): >99%
Binding (%) (plasma protein [7]): >99%
Compound: C=C(CC(=O)OCCCCCCCC)C(=O)OCC(=O)O [RE2, reference compound]
